According to publication PMC10518255, “A first-in-class pan-lysyl oxidase inhibitor impairs stromal remodeling and enhances gemcitabine response and survival in pancreatic cancer” (Nature Cancer, 2023):
“And” between values parts separate entries of the source, which are not always exact repeats. Identical values can stand only once.

Legend:
[1] = system: lysyl oxidase family activity in conditioned medium from KPC cancer cells; assay: Amplex red enzymatic activity assay on cell-derived conditioned medium (Extended Data Fig. 3g); type: biochemical, mouse; design: Lysyl oxidase family activity in conditioned media: unit not given here; conditions: for Lysyl oxidase family activity in conditioned media: KPC cancer cells CM, replicates
Procedure: (§1) Cell-derived conditioned medium was prepared from KPC CAFs and CCs grown in phenol red-free DMEM with 0.1% FBS and 10 μM CuSO4 for 24 h. At collection, size filtration >10 kDa for 40× concentration and buffer exchange (1.2 M urea and 50 mM sodium borate buffer, pH 8.2) were performed and subsequently used for the Amplex red assay as previously described[59] using putrescine as a substrate. Three biological repeats were performed.
(§2) Data presented as mean values +/− SD. f. […] Data presented as mean values +/− SD. […] Data presented as mean values +/− SD. […] Data presented as mean values +/− SD. Ordinary one-way ANOVA for multiple comparison test performed. Source data

[2] = system: lysyl oxidase family activity in conditioned medium from KPC CAFs; assay: as above; type: biochemical, mouse; design: Lysyl oxidase family activity in conditioned media: unit not given here; conditions: for Lysyl oxidase family activity in conditioned media: KPC CAF CM, replicates
Procedure: as §1, §2

[3] = system: human pancreatic cancer CAFs; assay: 3D organotypic matrix contraction assay; type: cell-based; design: area of matrices: unit not given here; conditions: for area of matrices: single replicates
Procedure: High-purity rat tail collagen for 3D organotypic assays was acid extracted following previously published methodology. The 12-day organotypic assays were carried out as described previously. In brief, 2 × 10^5 KPC CAFs were embedded in 2.5 ml 1.5 mg ml^−1 rat tail collagen and allowed to remodel for 12 days in a six-well plate in DMEM supplemented with 10% FBS and 1% penicillin–streptomycin in 21% O2/5% CO2 (Extended Data Fig. 4a). For human pancreatic cancer CAFs, 3.45 × 10^5 cells were embedded into 1.25 ml 1.5 mg ml^−1 rat tail collagen and allowed to remodel for 12 days in a 12-well plate in IMDM supplemented with 4 mM glutamine and 10% FBS in 21% O2/5% CO2.
Extended Data Fig. 4 PXS-5505 inhibits collagen cross-linking by PDAC CAFs in vitro resulting in decreased cancer cell invasion. a. Schematic of organotypic matrix remodeling assay whereby CAFs are embedded into a 3D collagen matrix and growth media supplemented with or without PXS-5505 to inhibit lysyl oxidase family activity b. Chemical structures of lysyl oxidase family catalyzed hydroxyallysine or allysine residues and the subsequent divalent and trivalent bonds that are formed that can be quantified by mass spectrometry. c. Representative images of 3D organotypic matrix contraction by human pancreatic cancer CAFs at days 2, 6 and 12 in the absence (gray) and presence (pink) of PXS-5505 (30 µM). Scale bars = 5 mm. […] Data presented as mean values +/− SD. d. […] Data presented as mean values +/− SD. Relative fold expression of LOXL family members compared to LOX were determined by 2^–∆∆Ct approach. f. Schematic of cancer cell invasion in a 3D organotypic matrix assay whereby cancer cells are seeded to the surface of a remodeled collagen plug and placed at an air–liquid interface and allowed to invade into the remodeled matrix. […] Scale bars = 100 μm. g. […] Representative images of 3D organotypic matrix contraction assay at days 2, 6 and 12 of control (gray) and presence of PXS-5120 (blue) and PXS-5505 (pink). Scale bars = 5 mm. Comparison of measured area of matrices between control, PXS-5120 and PXS-5505 treatment groups (n = 3) over time. i. […] Representative images of invasion of KPC cancer cells into a contracted organotypic matrix as determined by H&E staining. […] Source data

[4] = system: collagen crosslinks (DHLNL, Pyr) in KPC CAF organotypic matrices; assay: Collagen crosslink quantification by LC-MS in organotypic matrices; type: cell-based, mouse
Procedure: Fig. 3 PXS-5505 inhibition of CAF remodeling in vitro. a, Quantitative PCR with reverse transcription (qRT–PCR) showing in vitro comparison of KPC CAF relative expression of lysyl oxidase family members compared to KPC CCs from the same model (n = 3 biologically independent samples). Comparisons were determined by 2^–∆∆Ct approach. b, Representative images of 3D organotypic matrix contraction assay at days 2, 6 and 12 in the absence (gray) or presence (pink) of PXS-5505 (30 µM). Scale bars, 5 mm. Comparison of measured area of matrices between control and PXS-5505 treatment groups over time (n = 3 technical samples examined over three biologically independent samples). Data are mean ± s.d. c, Concentration of immature divalent DHLNL and mature trivalent Pyr collagen crosslinks determined by LC–MS from control and PXS-5505-treated organotypic matrices at day 12 ([…]). Data are mean ± s.d. […] Data are presented as mean ± s.d. […] Comparison of number of CCs invaded per field of view (FOV) as determined by H&E and PanCK staining (nine images taken from three technical samples from each of three biologically independent contracted matrices), normalized to control. Data are mean ± s.d. Scale bars, 100 μm. […] Source data
KPC CAFs embedded in 3D organotypic matrices remodel and crosslink them.
Collagen matrices were freeze dried and reduced with NaBH4. The resulting pellet was hydrolyzed with 6 mol l^−1 HCl at 100 °C for 24 h. An automated solid phase extraction system (Gilson GX-271 ASPECA system) was used to extract hydroxyproline and crosslinks from the hydrolysate. The samples were analyzed for hydroxyproline crosslinks by a UHPLC–ESI–MS/MS on a Thermo Dionex UPHPLC and TSQ Endura triple quadmass spectrometer as previously published. The lower limit of detection was 0.013 pmol 10 µl^−1.

[5] = LC/MS, organotypic matrices at day 12, single replicates (3 biological x 2 technical)
[6] = day 12, normalized to total collagen content

Cl.Cl.NC/C=C(\F)CS(=O)(=O)c1cccc2cccnc12.O [PXS-5505, (Z)-3-fluoro-4-(quinolin-8-ylsulfonyl)but-2-en-1-amine dihydrochloride monohydrate]
inhibition of lysyl oxidase family activity in conditioned medium ([1]; KPC CCs): inhibition of lysyl oxidase family activity
Lysyl oxidase family activity in conditioned media ([1]; 1.5 nM PXS): 52.7404 and 147.39 and 87.9635
Lysyl oxidase family activity in conditioned media ([1]; 3 nM PXS): 57.9047 and 143.925 and 88.9618
Lysyl oxidase family activity in conditioned media ([1]; 15 nM PXS): 58.7665 and 150.554 and 90.679
Lysyl oxidase family activity in conditioned media ([1]; 30 nM PXS): 57.8418 and 141.264 and 86.9464
Lysyl oxidase family activity in conditioned media ([1]; 150 nM PXS): 55.9673 and 128.167 and 75.6773
Lysyl oxidase family activity in conditioned media ([1]; 300 nM PXS): 56.4831 and 97.2065 and 57.86
Lysyl oxidase family activity in conditioned media ([1]; 1.5 uM PXS): 35.0772 and 43.4748 and 18.796
Lysyl oxidase family activity in conditioned media ([1]; 3 uM PXS): 22.4023 and 21.6286 and 3.933
Lysyl oxidase family activity in conditioned media ([1]; 15 uM PXS): -2.759 and 11.8534 and -9.095
Lysyl oxidase family activity in conditioned media ([1]; 30 uM PXS): -2.098 and 9.262 and -6.1538
Lysyl oxidase family activity in conditioned media ([2]; 1.5 nM PXS): 95.9609 and 94.079 and 81.6749
Lysyl oxidase family activity in conditioned media ([2]; 3 nM PXS): 109.447 and 108.981 and 81.5719
Lysyl oxidase family activity in conditioned media ([2]; 15 nM PXS): 100.129 and 99.9799 and 74.1019
Lysyl oxidase family activity in conditioned media ([2]; 30 nM PXS): 107.999 and 96.3316 and 79.5133
Lysyl oxidase family activity in conditioned media ([2]; 150 nM PXS): 79.0426 and 71.3415 and 64.7518
Lysyl oxidase family activity in conditioned media ([2]; 300 nM PXS): 88.3802 and 67.0866 and 51.1694
Lysyl oxidase family activity in conditioned media ([2]; 1.5 uM PXS): 45.307 and 27.142 and 15.754
Lysyl oxidase family activity in conditioned media ([2]; 3 uM PXS): 31.4691 and 22.608 and 3.789
Lysyl oxidase family activity in conditioned media ([2]; 15 uM PXS): -3.917 and 9.401 and -5.483
Lysyl oxidase family activity in conditioned media ([2]; 30 uM PXS): -4.091 and 9.102 and -4.018
inhibition of lysyl oxidase family activity in conditioned medium ([2]; KPC CAFs): inhibition of lysyl oxidase family activity
matrix contraction ([3]; human pancreatic cancer CAFs, PXS-5505 30 µM): no effect on CAF ability to contract matrices
area of matrices ([3]; time 0): 3.834
area of matrices ([3]; time 6): 3 and 2.954 and 2.863 and 2.88 and 3.193 (2×) and 3.06 and 3.1 and 3.113
area of matrices ([3]; time 10): 2.446 and 2.524 and 2.482 and 2.6253 and 2.773 and 2.7357 and 2.554 (2×) and 2.298
area of matrices ([3]; time 12): 2.093 and 2.049 and 2.109 and 2.548 and 2.951 and 2.912 and 2.791 (2×) and 2.892
Concentration of immature divalent dihyroxylysinonorleucine (DHLNL) collagen cross-links [4, 5]: 2.81 pmol/mL and 3.555 pmol/mL and 2.615 pmol/mL and 4.105 pmol/mL and 3.075 pmol/mL and 4.4 pmol/mL
Concentration of mature trivalent hydroxylysylpyridinoline (Pyr, PYD) collagen cross-links [4, 5]: 4.5 pmol/mL and 5.52 pmol/mL and 3.85 pmol/mL and 8.4 pmol/mL and 6.325 pmol/mL and 6.2 pmol/mL
immature divalent DHLNL collagen crosslinks [4, 6]: decreases
mature trivalent Pyr collagen crosslinks [4, 6]: decreases
